Assay: recombinant barcode read abundance after kanamycin selection (control-corrected) (log10(CPM+1)); higher = more efficient recombination; sequences stand for … in AGTGCAGAGAAAATCGGCCAGTTTTCTCTGCCTGCAGTCCGCATGCCGT…AGATTTATGCAGCGGACTGCCTTTCTCCCAAAGTGATAAACCGGACAGTATCATGGACCGGTTTTCCCGGTAATCCGTATTTGCAAGGTTGGTTTCACT; site = the 11-nt target
Experimental: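 Pooled E. coli target-specificity screen for the IS621 bridge recombinase. Each library plasmid pairs an 11-nt target (CT core) with a bridge RNA whose target-binding loop (9-nt LTG + 4-nt RTG) is reprogrammed; the rest of the 177-nt WT IS621 bridge RNA scaffold is fixed. The plasmid is co-electroporated with a WT donor plasmid; recombinase is induced with 0.1 mM IPTG and recombinants are selected on kanamycin. Recombinant barcodes are sequenced, converted to CPM, averaged over two biological replicates and corrected by the unselected control CPM. Molecule = full bridge RNA written as DNA: LTG = specificity nt 1-9, RTG = reverse complement of specificity nt 8-11, in the WT scaffold.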
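Further: IS621 recombinase and bridge RNA in Escherichia coli cells.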

## ACATAGACTTGGGTTCTAACCTGTTGCGC (site ACACAGACTGC)
  recombinant barcode read abundance (log10): 0.858

## ACATAGACTTGGGTTCTAACCTGTTGCGC (site ACAGAGACTGC)
  recombinant barcode read abundance (log10): 0.168

## ACATAGACTTGGGTTCTAACCTGTTGCGC (site ACATAGACTGC)
  recombinant barcode read abundance (log10): 1.35

## ACATAGTCTTGGGTTCTAACCTGTTGCAG (site ACATAGTCTCT)
  recombinant barcode read abundance (log10): 1.01

## ACATAGTCTTGGGTTCTAACCTGTTGCAG (site CCTTAGTCTCT)
  recombinant barcode read abundance (log10): 0.0322

## ACATAGTCTTGGGTTCTAACCTGTTGCTG (site ACATAGTCTCA)
  recombinant barcode read abundance (log10): 0.71

## ACATAGTCTTGGGTTCTAACCTGTTGCTG (site ACTTAGTCTTA)
  recombinant barcode read abundance (log10): 0.0401

## ACATCTCCTTGGGTTCTAACCTGTTGCCT (site ACATCTCCTAG)
  recombinant barcode read abundance (log10): 0.503

## ACATCTCCTTGGGTTCTAACCTGTTGCCT (site CCATCTCCTAG)
  recombinant barcode read abundance (log10): 0.239

## ACATCTCCTTGGGTTCTAACCTGTTGCCT (site GCATCTCCTAG)
  recombinant barcode read abundance (log10): 0.0778

## ACATCTCCTTGGGTTCTAACCTGTTGCCT (site TCATCTCCTAG)
  recombinant barcode read abundance (log10): 0.0426

## ACATGATCTTGGGTTCTAACCTGTTGCCT (site ACAATATCTAG)
  recombinant barcode read abundance (log10): 0.0106

## ACATGATCTTGGGTTCTAACCTGTTGCCT (site ACATGATCTAG)
  recombinant barcode read abundance (log10): 1.04

## ACATTTCCTTGGGTTCTAACCTGTTGCCT (site AAATTTCCTAG)
  recombinant barcode read abundance (log10): 0.0832

## ACATTTCCTTGGGTTCTAACCTGTTGCCT (site ACATTTCCTAG)
  recombinant barcode read abundance (log10): 0.1

## ACATTTCCTTGGGTTCTAACCTGTTGCCT (site AGATTTCCTAG)
  recombinant barcode read abundance (log10): 0.138

## ACATTTCCTTGGGTTCTAACCTGTTGCCT (site ATATTTCCTAG)
  recombinant barcode read abundance (log10): 0.58

## ACCAGAGCTTGGGTTCTAACCTGTTGCCT (site ACAAGAGCTAG)
  recombinant barcode read abundance (log10): 0.131

## ACCAGAGCTTGGGTTCTAACCTGTTGCCT (site ACCAGAGCTAG)
  recombinant barcode read abundance (log10): 0.823

## ACCAGAGCTTGGGTTCTAACCTGTTGCCT (site ACGAGAGCTAG)
  recombinant barcode read abundance (log10): 0.0525

## ACCAGAGCTTGGGTTCTAACCTGTTGCCT (site ACTAGAGCTAG)
  recombinant barcode read abundance (log10): 0.528

## ACCAGGACTTGGGTTCTAACCTGTTGCCG (site ACCAGGACTCG)
  recombinant barcode read abundance (log10): 1.94

## ACCAGGACTTGGGTTCTAACCTGTTGCCG (site GAGCCTCCTAT)
  recombinant barcode read abundance (log10): 0.091

## ACCAGTACTTGGGTTCTAACCTGTTGCCT (site ACCAGTACTAG)
  recombinant barcode read abundance (log10): 0.0544

## ACCAGTACTTGGGTTCTAACCTGTTGCCT (site ACCCGTACTAG)
  recombinant barcode read abundance (log10): 0.0724

## ACCAGTACTTGGGTTCTAACCTGTTGCCT (site ACCGGTACTAG)
  recombinant barcode read abundance (log10): 0.0115

## ACCAGTACTTGGGTTCTAACCTGTTGCCT (site ACCTGTACTAG)
  recombinant barcode read abundance (log10): 0.664

## ACCATCACTTGGGTTCTAACCTGTTGCCT (site ACAAGCACTAG)
  recombinant barcode read abundance (log10): 0.103

## ACCATCACTTGGGTTCTAACCTGTTGCCT (site ACCATCACTAG)
  recombinant barcode read abundance (log10): 0.79

## ACCATGTCTTGGGTTCTAACCTGTTGCGG (site ACCATGTCTCC)
  recombinant barcode read abundance (log10): 1.96

## ACCATGTCTTGGGTTCTAACCTGTTGCGG (site TAGTACACTGT)
  recombinant barcode read abundance (log10): 0.171

## ACCCAAGCTTGGGTTCTAACCTGTTGCCT (site ACCCAAACTAG)
  recombinant barcode read abundance (log10): 1.14

## ACCCAAGCTTGGGTTCTAACCTGTTGCCT (site ACCCAACCTAG)
  recombinant barcode read abundance (log10): 0.199

## ACCCAAGCTTGGGTTCTAACCTGTTGCCT (site ACCCAAGCTAG)
  recombinant barcode read abundance (log10): 1.57

## ACCCAAGCTTGGGTTCTAACCTGTTGCCT (site ACCCAATCTAG)
  recombinant barcode read abundance (log10): 0.196

## ACCCAGCCTTGGGTTCTAACCTGTTGCGT (site ACCCAGCCTAA)
  recombinant barcode read abundance (log10): 0.534

## ACCCAGCCTTGGGTTCTAACCTGTTGCGT (site ACCCAGCCTAC)
  recombinant barcode read abundance (log10): 3.25

## ACCCAGCCTTGGGTTCTAACCTGTTGCGT (site ACCCAGCCTAG)
  recombinant barcode read abundance (log10): 0.316

## ACCCAGCCTTGGGTTCTAACCTGTTGCGT (site ACCCAGCCTAT)
  recombinant barcode read abundance (log10): 2.22

## ACCCAGTCTTGGGTTCTAACCTGTTGCCA (site AACCAGTCTCG)
  recombinant barcode read abundance (log10): 0.12

## ACCCAGTCTTGGGTTCTAACCTGTTGCCA (site ACCCAGTCTTG)
  recombinant barcode read abundance (log10): 0.961
